Data taken from publication PMC9127750, “Structure-based design of CDC42 effector interaction inhibitors for the treatment of cancer” (Cell reports, 2022).
“And” between values parts separate entries of the source, which are not always exact repeats. Identical values can stand only once.

System: WM3248 melanoma cells, 486 antibodies
Experiment: Reverse phase protein arrays (RPPA)
Type: cell-based, Human
Description: Pellets were snap frozen in liquid nitrogen and shipped to MD Anderson Cancer Center core RPPA facility for RPPA analysis (Table S5). Three biological replicates for each sample were generated.
Nomenclatures on the RPPA heatmaps: name_of_antibody.species_of_antibody.status_of_antibody. V - antibody validated; C - validation of antibody in progress; Q - antibody nonspecific; E – under evaluation; antibodies raised in M - mouse, G - goat, R - rabbit, or T - rat.

[1] = Norm_5: replicates 1-3 and Average, relative to 0
[2] = Norm_5, replicates 1-3 and Average, relative to Norm_0

CN(C)c1cccc(Nc2cc(-c3ccccc3)nc(C3CCNCC3)n2)c1 [ARN22089, N1,N1-dimethyl-N3-(6-phenyl-2-(piperidin-4-yl)pyrimidin-4-yl)benzene-1,3-diamine]
RSK1.R.V normalized RPPA signal [1]: 1.085 and 0.967 and 1.032 | RSK.R.C normalized RPPA signal [1]: 1.076 and 1.100 | Rab11.R.C normalized RPPA signal [1]: 1.016 and 1.047 and 1.025 and 1.029 | Rab25.R.V normalized RPPA signal [1]: 0.979 and 1.011 and 0.966 and 0.985 | Rad17_pS645.R.V normalized RPPA signal [1]: 0.979 and 0.856 and 0.975 | Rad23A.R.C normalized RPPA signal [1]: 0.977 and 1.149 and 0.762 and 0.963 | Rad50.R.V normalized RPPA signal [1]: 1.246 and 0.924 and 1.080 | Rad51.R.C normalized RPPA signal [1]: 0.775 and 0.822 and 0.890 and 0.829 | Raptor.R.V normalized RPPA signal [1]: 0.903 and 1.058 and 0.970 | Rb.M.Q normalized RPPA signal [1]: 0.962 and 0.918 and 0.956 and 0.945 | Rb_pS807_S811.R.V normalized RPPA signal [1]: 0.882 and 1.011 and 0.977 | Rheb.M.C normalized RPPA signal [1]: 1.004 and 1.059 and 1.001 and 1.021 | Rictor.R.C normalized RPPA signal [1]: 1.004 and 0.961 and 1.013 | Rictor_pT1135.R.V normalized RPPA signal [1]: 1.047 and 0.998 and 1.024 and 1.023 | S6.M.V normalized RPPA signal [1]: 1.120 and 0.958 and 1.452 | S6_pS235_S236.R.V normalized RPPA signal [1]: 1.127 and 0.835 and 1.012 and 0.991 | S6_pS240_S244.R.V normalized RPPA signal [1]: 0.956 and 0.805 and 0.753 and 0.838 | SCD.M.V normalized RPPA signal [1]: 0.971 and 0.991 and 1.085 and 1.016 | SDHA.R.V normalized RPPA signal [1]: 1.033 and 1.016 and 1.031 | SF2.R.V normalized RPPA signal [1]: 0.946 and 0.943 and 1.034 and 0.974 | SFRP1.R.V normalized RPPA signal [1]: 0.931 and 0.917 and 0.927 and 0.925 | SGK1.R.V normalized RPPA signal [1]: 1.122 and 0.983 and 1.065 | SGK3.R.V normalized RPPA signal [1]: 0.809 and 0.879 and 0.966 and 0.885 | SHP2.R.V normalized RPPA signal [1]: 0.965 and 0.955 and 0.959 and 0.960 | SHP.2_pY542.R.C normalized RPPA signal [1]: 1.007 and 1.103 and 0.995 and 1.035 | SIRPαR.V normalized RPPA signal [1]: 0.995 and 0.945 and 0.836 and 0.925 | SLC1A5.R.C normalized RPPA signal [1]: 1.053 and 0.972 | SOD1.M.V normalized RPPA signal [1]: 0.959 and 1.035 and 0.980 | SOD2.R.V normalized RPPA signal [1]: 1.012 and 1.026 and 0.995 | SOX7.R.V normalized RPPA signal [1]: 0.939 and 1.028 and 0.910 and 0.959 | STING.R.V normalized RPPA signal [1]: 0.946 and 1.077 and 1.149 and 1.057 | Shc_pY317.R.C normalized RPPA signal [1]: 0.575 and 1.701 and 1.009 | Slfn11.G.C normalized RPPA signal [1]: 0.898 and 1.001 and 0.887 and 0.929 | Smac.M.Q normalized RPPA signal [1]: 0.860 and 1.033 and 0.824 and 0.905 | Smad1.R.V normalized RPPA signal [1]: 1.028 and 1.016 and 1.057 and 1.034 | Smad3.R.V normalized RPPA signal [1]: 1.027 and 1.110 and 0.885 and 1.007 | Smad4.R.V normalized RPPA signal [1]: 0.953 and 0.919 and 1.129 and 1.000 | Snail.M.Q normalized RPPA signal [1]: 0.807 and 0.836 and 0.899 and 0.847 | Sox2.R.V normalized RPPA signal [1]: 1.113 and 0.987 and 0.935 and 1.012 | Sox17.R.V normalized RPPA signal [1]: 0.914 and 0.904 and 1.000 and 0.939 | Src.M.V normalized RPPA signal [1]: 0.923 and 1.011 and 1.048 and 0.994 | Src_pY416.R.V normalized RPPA signal [1]: 0.930 and 0.928 and 0.956 | Src_pY527.R.V normalized RPPA signal [1]: 1.055 and 1.158 and 1.605 and 1.273 | Stat1_pY701.R.V normalized RPPA signal [1]: 0.914 and 0.929 and 0.961 and 0.935 | Stat3.R.C normalized RPPA signal [1]: 0.970 and 0.910 and 0.975 | Stat3_pY705.R.C normalized RPPA signal [1]: 1.031 and 0.914 and 0.997 and 0.980 | Stat5a.R.V normalized RPPA signal [1]: 0.989 and 1.022 and 1.028 and 1.013 | Stathmin.1.R.V normalized RPPA signal [1]: 1.025 and 1.018 and 0.975 and 1.006 | Syk.M.V normalized RPPA signal [1]: 0.694 and 0.899 and 1.030 and 0.874 | Synaptophysin.R.C normalized RPPA signal [1]: 0.918 and 0.774 and 1.022 and 0.904 | TAZ.R.V normalized RPPA signal [1]: 0.970 and 1.124 and 0.886 and 0.994 | TEAD.R.C normalized RPPA signal [1]: 0.913 and 0.942 and 0.954 and 0.936 | TFAM.R.V normalized RPPA signal [1]: 0.945 and 1.024 and 1.101 and 1.023 | TFRC.R.V normalized RPPA signal [1]: 0.905 and 0.974 and 0.942 and 0.940 | TIGAR.R.V normalized RPPA signal [1]: 1.046 and 0.999 and 1.028 | TRAP1.M.V normalized RPPA signal [1]: 0.917 and 0.980 and 0.909 and 0.935 | TRIM24.R.C normalized RPPA signal [1]: 0.917 and 0.931 and 1.013 and 0.954 | TRIM25.R.C normalized RPPA signal [1]: 0.925 and 1.108 and 1.361 and 1.131 | TRIP13.R.V normalized RPPA signal [1]: 0.993 and 0.918 and 0.936 | Tau.M.C normalized RPPA signal [1]: 1.003 and 0.977 and 1.007 | Transglutaminase.M.V normalized RPPA signal [1]: 1.143 and 1.434 and 0.745 and 1.107 | A.Raf.R.V RPPA signal, normalized [2]: 1.063 and 0.973 and 1.128 and 1.055 | A.Raf_pS299.R.C RPPA signal, normalized [2]: 0.910 and 0.929 and 0.996 and 0.945 | ACC1.R.C RPPA signal, normalized [2]: 1.079 and 1.112 | ACC_pS79.R.V RPPA signal, normalized [2]: 0.996 and 1.006 and 1.005 and 1.002 | ACLY_pS455.R.V RPPA signal, normalized [2]: 0.993 and 1.161 and 0.844 and 0.999 | ACSL1.R.V RPPA signal, normalized [2]: 0.995 and 0.806 and 0.904 | ACVRL1.R.C RPPA signal, normalized [2]: 0.940 and 0.993 and 0.936 and 0.956 | ADAR1.M.V RPPA signal, normalized [2]: 0.990 and 0.970 and 1.080 and 1.013 | ALKBH5.R.V RPPA signal, normalized [2]: 1.026 and 1.137 and 0.879 and 1.014 | AMPK.a2_pS345.R.V RPPA signal, normalized [2]: 0.974 and 1.081 and 1.055 | AMPKa.R.C RPPA signal, normalized [2]: 1.048 | AMPKa_pT172.R.C RPPA signal, normalized [2]: 1.029 and 0.832 and 0.850 and 0.903 | AR.R.V RPPA signal, normalized [2]: 1.053 and 0.956 and 1.050 and 1.020 | ARID1A.R.C RPPA signal, normalized [2]: 1.008 and 1.012 and 1.065 | ASNS.R.V RPPA signal, normalized [2]: 1.454 and 1.206 | ATM.R.V RPPA signal, normalized [2]: 0.983 and 1.033 and 1.311 and 1.109 | ATM_pS1981.R.V RPPA signal, normalized [2]: 0.928 and 0.941 and 0.961 and 0.943 | ATP5A.M.C RPPA signal, normalized [2]: 1.127 and 1.377 and 0.535 and 1.013 | ATP5H.R.V RPPA signal, normalized [2]: 1.032 and 1.077 and 0.898 and 1.003 | ATR.R.V RPPA signal, normalized [2]: 0.945 and 0.970 and 0.954
